# Results from the NIST ThermoML archive (doi:10.1016/j.fluid.2006.10.024).
# Numbers after ± are expanded uncertainties.
# Conditions: Liquid; for mass density: 101.33 kPa
smiles,measurement,setting,value
"C1COCO1 [1,3-dioxolane]",mass density,298.15 K,1058.62 ± 0.85 kg/m3
same,vapor or sublimation pressure,298.15 K,13.54 ± 0.18 kPa
same,mass density,313.15 K,1039.88 ± 0.76 kg/m3
same,vapor or sublimation pressure,313.15 K,26.83 ± 0.29 kPa
same,mass density,328.15 K,1020.86 ± 0.67 kg/m3
same,vapor or sublimation pressure,328.15 K,49.01 ± 0.47 kPa
"C1COCCO1 [1,4-dioxane]",mass density,298.15 K,1027.87 ± 0.71 kg/m3
same,vapor or sublimation pressure,298.15 K,4.9 ± 0.12 kPa
same,mass density,313.15 K,1010.69 ± 0.63 kg/m3
same,vapor or sublimation pressure,313.15 K,10.17 ± 0.16 kPa
same,mass density,328.15 K,993.75 ± 0.6 kg/m3
same,vapor or sublimation pressure,328.15 K,19.54 ± 0.23 kPa
CCCCCCl [1-chloropentane],mass density,298.15 K,877 ± 1 kg/m3
same,vapor or sublimation pressure,298.15 K,4.055 ± 0.11 kPa
same,mass density,313.15 K,861.52 ± 1.1 kg/m3
same,vapor or sublimation pressure,313.15 K,8.45 ± 0.14 kPa
same,mass density,328.15 K,846.33 ± 1.1 kg/m3
same,vapor or sublimation pressure,328.15 K,16.4 ± 0.21 kPa
C1CCOC1 [tetrahydrofuran],mass density,298.15 K,881.95 ± 0.45 kg/m3
same,vapor or sublimation pressure,298.15 K,21.61 ± 0.25 kPa
same,mass density,313.15 K,865.36 ± 0.49 kg/m3
same,vapor or sublimation pressure,313.15 K,40.62 ± 0.4 kPa
same,mass density,328.15 K,848.68 ± 0.52 kg/m3
same,vapor or sublimation pressure,328.15 K,70.61 ± 0.63 kPa
C1CCOCC1 [tetrahydropyran],mass density,298.15 K,878.81 ± 1 kg/m3
same,vapor or sublimation pressure,298.15 K,9.56 ± 0.15 kPa
same,mass density,313.15 K,863.67 ± 1.1 kg/m3
same,vapor or sublimation pressure,313.15 K,18.66 ± 0.23 kPa
same,mass density,328.15 K,848.29 ± 1.1 kg/m3
same,vapor or sublimation pressure,328.15 K,33.95 ± 0.35 kPa
